Laboratory results as given in patent publication US9512169B2, “3-substituted estra-1,3,5(10),16-tetraene derivatives, methods for the production thereof, pharmaceutical preparations containing same, and use thereof for the production of medicaments” (BAYER PHARMA AKTIENGESELLSCHAFT, priority 2012, dated 2016).
Where “and” joins values, the source holds several entries; their conditions need not be identical. Identical values can stand only once.

Columns and labels:
[1] = target: T1, AKR1C3 (Homo sapiens (Human), UniProt P42330); test: AKR1C3 inhibition in a cell-based system (HEK293 cells transfected with AKR1C3 expression plasmid, coumberol fluorescence); conditions: HEK293 cells transfected with AKR1C3, incubation overnight; repeated lines = independent determinations; read-out: Cellular AKR1C3 inhibition IC50
T1 sequence (P42330 whole entry): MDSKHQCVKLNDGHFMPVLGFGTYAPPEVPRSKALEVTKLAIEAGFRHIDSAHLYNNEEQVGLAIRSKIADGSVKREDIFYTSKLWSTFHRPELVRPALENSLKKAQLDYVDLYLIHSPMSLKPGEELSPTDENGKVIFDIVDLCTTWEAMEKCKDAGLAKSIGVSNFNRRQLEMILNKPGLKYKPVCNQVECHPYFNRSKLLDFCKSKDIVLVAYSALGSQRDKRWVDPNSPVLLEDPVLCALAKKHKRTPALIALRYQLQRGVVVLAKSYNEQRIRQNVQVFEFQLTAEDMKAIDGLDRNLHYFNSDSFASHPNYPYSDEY
Protocol: The inhibition of AKR1C3 by the substances described in the present invention was measured in a cell-based assay using […] as substrate for the AKR1C3 (Halim, M., Yee, D. J., and Sames, D., J. AM. CHEM. SOC. 130, 14123-14128 (2008) and Yee, D. J., Balsanek, V., Bauman, D. R., Penning, T. M., and Sames, D., Proc. Natl. Acad. Sci. USA 103, 13304-13309 (2006)) (cf. Example 20).
The cell system used were HEK293 cells (ATCC, USA) (cell culture medium: DMEM, 1.5 g glucose, 10% FCS, PSG). The cells were transfected in an AKR1C3 expression plasmid (pCMV6-AC-AKR1C3, GenBank Accession No. NM_003739.4) overnight (X-tremeGENE HP, Roche). The next morning, the cells were sown in black 96well cell culture plates at a cell density of 40000 cells/well (Greiner Bio-One, Frickenhausen, Germany). After 7 h, the cells were incubated with the test substances (dissolved in 100× concentration in DMSO, final concentration between 10^−11M and 10^−5M) and […] (dissolved in cell culture medium, final concentration 5×10^−6M) overnight. The next morning, the fluorescence of coumberol was measured at 535 nm (excitation at 355 nm) using a suitable measuring instrument (Mithras, from Berthold). The fluorescence intensity was used as a measure of the amount of coumberol formed and thus of the enzyme activity of AKR1C3. The data were normalized (transfected cells without inhibitor, only DMSO=0% inhibition; transfected cells, 10 μM inhibitor EM-1404 [F. Labrie et al. U.S. Pat. No. 6,541,463, 2003]=100% inhibition), and the IC50 values were calculated using a 4-parameter fit.
In the cell-based assay described above, the pharmacological substances claimed were examined for their inhibitory activity on the AKR1C3 enzyme (see Table 2).

[2] = target: T1, AKR1C3; test: AKR1C3 binding by isothermal titration calorimetry; design: exothermal binding enthalpy: unit not given here; conditions: ITC, 25° C., PBS buffer
Protocol: Binding of Example compound 1 to the AKR1C3 enzyme was measured by isothermal titration calorimetry. The degree of affinity of a given compound can be stated using the dissociation constant (KD value). Human AKR1C3 enzyme was prepared as described in Example 20. For ITC experiments, human AKR1C3 protein was transferred by gel permeation into a PBS buffer consisting of 137 mM NaCl, 2.7 mM KCl, 10 mM Na2HPO4, 2 mM KH2PO4 and 1 mM tris(2-carboxyethyl)phosphine hydrochloride. The compounds were dissolved in 100% DMSO at a concentration of 10 mM and then diluted with PBS buffer. Isothermal titration calorimetry experiments (ITC experiments) were carried out using an ITC200 titration calorimeter (GE Healthcare, Northampton, Mass., USA) at a temperature of 25° C. The change in enthalpy resulting from the injection of the protein was determined by integration of the calorimetric signal. The data were analyzed with Origin 7.0 (GE Healthcare, Northampton, Mass., USA). Heat of dilution values were determined using the last injection of the titration in question and subtracted prior to curve fitting. The protein concentration in the injection syringe was in the range from 80 to 120 μM, and the concentration of the compound to be measured was in the range from 5 to 20 μM.

[3] = target: T1, AKR1C3; test: AKR1C3 enzyme inhibition assay (Coumberone to Coumberol fluorescence); assay type: biochemical; conditions: recombinant human AKR1C3, 15 min pre-incubation, 90 min at 22° C.; repeated lines = two experimental determinations
Protocol: The AKR1C3-inhibitory activity of the substances of the present invention was measured in the AKR1C3 assay described in the paragraphs below.
Essentially, the enzyme activity is measured by quantification of the Coumberol from Coumberone (Halim, M., Yee, D. J., and Sames, D., J. AM. CHEM. SOC. 130, 14123-14128 (2008) and Yee, D. J., Balsanek, V., Bauman, D. R., Penning, T. M., and Sames, D., Proc. Natl. Acad. Sci. USA 103, 13304-13309 (2006)). In this test, the increase of the highly fluorescent Coumberol by NADPH- (nicotinamide adenine dinucleotide phosphate)-dependent reduction of the non-fluorescent Coumberone by AKR1C3 can be determined.
The enzyme used was recombinant human AKR1C3 (Aldo-keto reductase family 1 member C3) (GenBank Accession No. NM_003739). This was expressed in E. coli as GST (glutathione S transferase) fusion protein and purified by glutathione Sepharose affinity chromatography. The GST was removed by digestion with thrombin and subsequent size exclusion chromatography (Dufort, I., Rheault, P., Huang, X F., Soucy, P., and Luu-The, V., Endocrinology 140, 568-574 (1999)).
For the assay, 50 nl of a 100-fold concentrated solution of the test substance in DMSO were pipetted into a black low-volume 384-well microtiter plate (Greiner Bio-One, Frickenhausen, Germany), 2.0 μl of a solution of AKR1C3 in assay buffer [50 mM potassium phosphate buffer pH 7, 1 mM DTT, 0.0022% (w/v) Pluronic F-127, 0.01% BSA (w/v) and protease inhibitor cocktail (Complete, EDTA-free Protease Inhibitor Cocktail from Roche)] were added and the mixture was incubated for 15 min to allow pre-binding of the substances to the enzyme prior to the enzyme reaction. The enzyme reaction was then started by addition of 3 μl of a solution of NADPH (16.7 μM→final concentration in 5 μl of assay volume is 10 μM) and Coumberone (0.5 μM→final concentration in 5 μl of assay volume is 0.3 μM) in assay buffer, and the resulting mixture was incubated at 22° C. for the reaction time of 90 min. The concentration of the AKR1C3 was adapted to the respective activity of the enzyme preparation and adjusted such that the assay was carried out in the linear range. Typical concentrations were in the region of 1 nM. The reaction was stopped by addition of 5 μl of a stop solution consisting of the inhibitor EM-1404 [F. Labrie et al. U.S. Pat. No. 6,541,463, 2003] (2 μM→final concentration in […] is 1 μM). The fluorescence of the Coumberole was then measured at 520 nm (excitation at 380 nm) using a suitable measuring instrument (Pherastar from BMG Labtechnologies). The intensity of the fluorescence was used as a measure of the amount of Coumberole formed and thus of the enzyme activity of AKR1C3. The data were normalized (enzyme reaction without inhibitor=0% inhibition; all other assay components, but no enzyme=100% inhibition).
As described, the pharmacological substances claimed were examined for their inhibitory activity on the AKR1C3 enzyme (see Table 1). The compounds claimed show a strong inhibition of AKR1C3 in vitro (IC50 values <200 nM) and in most cases even IC50 values <50 nM.

C[C@]12CC[C@@H]3c4ccc(CCC(=O)O)cc4CC[C@H]3[C@@H]1CC=C2c1cncc(F)c1 [Example 1, 3-[17-(5-Fluoropyridin-3-yl)estra-1,3,5(10),16-tetraen-3-yl]propanoic acid]
IC50 [1]: 40 nM and 52 nM and 157 nM
exothermal binding enthalpy [2]: −1500
Kd ([2]; read-out: KD value (dissociation constant)): 230 nM
IC50 [3]: 8 nM and 7.6 nM
